Literature values, collected in patent US20090118340A1, “Method for inhibiting and/or preventing formation of cancer metastases and seconddary malignant cancers” (priority 2007, published 2009).

Test system: murine leukemia L1210
Conditions: for cytotoxicity in cultured leukemia cells: Pharmacological Reports, 2007, 59, 216-223

Row | SMILES | cytotoxicity in cultured leukemia cells | cytotoxicity, factor lower than 3-nitro-1-methylpyridinium chloride (observed only at very high concentration)
1 | C[n+]1cccc([N+](=O)[O-])c1.[Cl-] [3-nitro-1-methylpyridinium chloride, reference compound] | highest cytotoxicity | –
2 | C[n+]1cccc(C(N)=O)c1 [MNA, 1-methylnicotinamide] | negligible | about 7000
